According to patent US11638712B2, “Bis(acetamidophenyl) guanidinophenylethylphosphonates for use in the prevention and/or treatment of PAR-related diseases” (Universiteit Antwerpen, priority 2016, dated 2023):

Key:
[1] = target: uPA (Homo sapiens, UniProt P00749); test: in vitro serine protease inhibition profile: uPA; assay type: biochemical
[2] = target: tPA (Homo sapiens, UniProt P00750); test: in vitro serine protease inhibition profile: tPA; assay type: biochemical
[3] = target: tryptase (Homo sapiens, UniProt Q15661); test: in vitro serine protease inhibition profile: tryptase; assay type: biochemical
Chain of tryptase (Q15661 31-275): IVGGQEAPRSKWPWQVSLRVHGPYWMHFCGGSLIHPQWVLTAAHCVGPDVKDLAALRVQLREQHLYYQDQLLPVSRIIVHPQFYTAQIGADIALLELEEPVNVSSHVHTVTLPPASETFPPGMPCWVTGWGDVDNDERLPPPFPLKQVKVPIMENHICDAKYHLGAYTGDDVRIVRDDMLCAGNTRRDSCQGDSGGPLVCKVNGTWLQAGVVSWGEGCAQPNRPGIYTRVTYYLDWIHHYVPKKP

[4] = target: T1, matriptase (Homo sapiens, UniProt Q9Y5Y6); test: in vitro serine protease inhibition profile: matriptase; assay type: biochemical
T1 sequence (Q9Y5Y6 1-855): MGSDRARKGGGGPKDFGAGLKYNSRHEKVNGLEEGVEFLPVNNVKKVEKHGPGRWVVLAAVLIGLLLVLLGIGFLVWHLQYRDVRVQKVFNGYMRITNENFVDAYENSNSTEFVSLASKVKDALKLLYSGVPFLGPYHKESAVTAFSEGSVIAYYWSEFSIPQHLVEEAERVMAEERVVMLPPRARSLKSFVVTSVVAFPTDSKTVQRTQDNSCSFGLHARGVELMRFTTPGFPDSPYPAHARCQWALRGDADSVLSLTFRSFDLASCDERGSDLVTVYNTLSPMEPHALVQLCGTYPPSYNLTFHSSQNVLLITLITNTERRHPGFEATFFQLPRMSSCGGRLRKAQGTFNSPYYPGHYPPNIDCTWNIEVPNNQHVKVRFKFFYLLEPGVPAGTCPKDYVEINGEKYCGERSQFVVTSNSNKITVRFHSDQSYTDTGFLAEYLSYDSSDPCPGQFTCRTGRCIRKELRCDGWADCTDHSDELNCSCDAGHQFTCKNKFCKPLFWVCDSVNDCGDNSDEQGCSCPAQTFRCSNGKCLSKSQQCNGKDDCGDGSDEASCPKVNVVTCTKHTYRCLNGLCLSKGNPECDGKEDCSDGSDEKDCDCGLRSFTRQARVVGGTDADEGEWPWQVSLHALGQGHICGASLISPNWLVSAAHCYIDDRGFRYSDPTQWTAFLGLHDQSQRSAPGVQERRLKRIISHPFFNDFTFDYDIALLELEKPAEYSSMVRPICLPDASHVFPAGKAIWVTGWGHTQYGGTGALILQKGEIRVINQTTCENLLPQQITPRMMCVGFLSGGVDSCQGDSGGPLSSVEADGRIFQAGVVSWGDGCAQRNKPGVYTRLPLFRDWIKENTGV

[5] = target: KLK1 (Homo sapiens, UniProt P06870); test: in vitro serine protease inhibition profile: KLK1; assay type: biochemical
Chain of KLK1 (P06870 25-262, species assumed): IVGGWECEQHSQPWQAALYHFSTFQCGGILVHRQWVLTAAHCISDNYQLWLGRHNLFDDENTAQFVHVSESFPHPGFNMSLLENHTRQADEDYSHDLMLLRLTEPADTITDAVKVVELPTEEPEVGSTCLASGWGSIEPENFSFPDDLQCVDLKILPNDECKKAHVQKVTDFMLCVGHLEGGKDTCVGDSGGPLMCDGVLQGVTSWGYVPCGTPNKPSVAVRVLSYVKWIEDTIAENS

[6] = target: T2, FXIIa (Homo sapiens, UniProt P00748); test: in vitro serine protease inhibition profile: FXIIa; assay type: biochemical
T2 construct: panel of serine proteases: uPA, tPA, thrombin, plasmin, FXIIa
T2 sequence (P00748 373-615 limits assumed, other chains not shown): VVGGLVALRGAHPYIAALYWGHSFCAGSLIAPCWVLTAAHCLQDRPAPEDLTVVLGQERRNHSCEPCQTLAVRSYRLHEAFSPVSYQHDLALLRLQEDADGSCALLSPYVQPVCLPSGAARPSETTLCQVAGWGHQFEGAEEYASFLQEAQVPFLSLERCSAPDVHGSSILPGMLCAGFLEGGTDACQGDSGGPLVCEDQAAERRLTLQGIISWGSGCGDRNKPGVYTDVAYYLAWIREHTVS

[7] = test system: post-colitis rats; test: post-colitis rat model for visceral pain, visceromotor response (VMR) to colorectal distension; details: for effect on VMRs (visceral pain) / effective dose in visceral pain model: post-colitis rats; for effective dose in visceral pain model: i.p.
Description: Male Sprague-Dawley rats (200-225 g; Charles River, Italy) were used in all experiments. Rats were housed at a constant room temperature (22±2° C.) and humidity (60%). The animals had unlimited access to water and food and were kept on a 12 h:12 h day-night cycle. They were allowed to acclimatize for at least 1 week before the start of the experiments.
In this set-up, a mild colitis was induced in the post-colitis group on day 0, using a TNBS-enema. The control group received an intrarectal administration with 0.9% NaCl. The presence of colitis was verified by a colonoscopy on day 3. From day 10 onwards, a colonoscopy was performed every 4 days to follow-up the healing of the colonic mucosa. When the colonic mucosa was completely healed, further experiments were performed 3 days later. […] After the VMR measurement, the animals were sacrificed.
TNBS-colitis was induced at day 0 using a TNBS-enema (4 mg TNBS, 50% ethanol). […] Control animals received 0.25 ml 0.9% NaCl intrarectally. The animals were kept in a tail-up position during 1 min and were then allowed to recover in a Trendelenburg position.
Electromyographic (EMG) electrodes were implanted into the external abdominal muscle and 3 days later, the VMR experiment was performed in conscious rats. A lubricated balloon (length 5 cm) was introduced into the colorectum of the animal and connected to a barostat (Distender Series II Barostat, G&J Electronics, Canada). The EMG electrodes were attached to a data-acquisition system and a phasic distension protocol (10-20-30-40-60 mmHg, 20 s, 4 min interval) was sent through the barostat. […] The VMR was quantified using the area under the curve (AUC) of the EMG signal during the distension (20 s) corrected for the EMG signal before the distension (20 s).
22.0. The results of the VMR experiments analyzed using a Generalized Estimating Equations (GEE) test with Least Significant Difference (LSD) post-hoc test. A p-value<0.05 was considered as being statistically significant. The graphs were made with GraphPad Prism 6.0.
Visceral sensitivity was assessed using the visceromotor responses (VMRs) to a colorectal distension, shown in the graphs below as area under the curve (AUC; y-axis; μV.20 s-1) for each distension pressure (x-axis; mmHg). Serine proteases seem to play an important role in the pathogenesis of visceral pain.

[8] = 1 mg/kg i.p., single administration

Chain of tPA (P00750 36-562, species assumed): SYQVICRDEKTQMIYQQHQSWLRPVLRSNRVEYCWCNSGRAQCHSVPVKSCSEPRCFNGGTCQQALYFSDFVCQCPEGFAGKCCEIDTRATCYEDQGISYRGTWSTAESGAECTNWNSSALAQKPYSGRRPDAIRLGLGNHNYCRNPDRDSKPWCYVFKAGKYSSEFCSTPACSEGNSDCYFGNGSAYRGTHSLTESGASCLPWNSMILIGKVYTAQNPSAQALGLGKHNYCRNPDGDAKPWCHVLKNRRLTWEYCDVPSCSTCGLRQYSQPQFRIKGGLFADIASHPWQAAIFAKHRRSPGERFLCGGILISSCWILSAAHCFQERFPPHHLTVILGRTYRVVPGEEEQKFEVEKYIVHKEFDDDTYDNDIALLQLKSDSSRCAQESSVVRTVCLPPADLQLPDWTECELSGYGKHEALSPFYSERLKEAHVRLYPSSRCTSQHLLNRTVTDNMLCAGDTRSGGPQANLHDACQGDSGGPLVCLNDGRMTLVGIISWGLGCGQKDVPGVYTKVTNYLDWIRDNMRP

Compound | IC50 [1] [nM] | IC50 [2] [nM] | IC50 [3] [nM] | IC50 [4] [nM] | IC50 [5] [nM] | IC50 [6] [nM] | effect on VMRs (visceral pain) [7, 8] | effect on VMRs (visceral pain) ([7]; 2.5 mg/kg i.p.) | effective dose in visceral pain model [7] | side effect observed ([7]; rats, 5 mg/kg) | effect on visceral sensitivity ([7]; control rats, 1 mg/kg i.p.) | effect on VMRs (visceral pain) ([7]; 0.01 mg/kg i.p., single administration 30 min before VMR) | effect on VMRs (visceral pain) ([7]; 0.1 mg/kg i.p., single administration)
COC(=O)NC(Cc1ccc(NC(=N)N)cc1)P(=O)(Oc1ccccc1)Oc1ccccc1 (stereo not drawn) [Compound 1] | 4 | > 2500 | 93 | 82 | > 2500 | > 2500 | no clear reduction of the VMRs was seen | visceral pain had completely disappeared | at least 2.5 mg/kg | sedation was observed |  |  | 
CC(=O)Nc1ccc(OP(=O)(Oc2ccc(NC(C)=O)cc2)C(Cc2ccc(NC(=N)N)cc2)NC(=O)OCc2ccccc2)cc1 (stereo not drawn) [Compound 4] | 2 | > 2500 | 5 | 3 | > 2500 | 1610 | visceral pain had completely disappeared |  | 0.1 mg/kg |  | no significant effect on visceral sensitivity | no significant effect | significantly lowered VMRs
